The NIST ThermoML archive (doi:10.1021/je5009679)
Numbers after ± are expanded uncertainties.

Details: Liquid; for viscosity: Concentric cylinders viscometry

CCn1cc[n+](C)c1.CO[PH](=O)[O-] [1-ethyl-3-methylimidazolium methyl phosphonate]
101.33 kPa
Details | viscosity [mPa·s]
293.15 K | 156.4 ± 7.6
303.15 K | 89.9 ± 4.3
313.15 K | 56.11 ± 2.6
323.15 K | 37.41 ± 1.8
333.15 K | 26.3 ± 1.2
343.15 K | 19.32 ± 0.91
353.15 K | 14.71 ± 0.69
363.15 K | 11.54 ± 0.54
373.15 K | 9.289 ± 0.44

Details | mass density [kg/m3]
293.15 K, 101.33 kPa, Vibrating tube method | 1198.3 ± 1.1
303.15 K, 101.33 kPa, Vibrating tube method | 1191.7 ± 1.1
311.2 K, 10000 kPa, Bellows volumetry | 1189.6 ± 1.5
311.2 K, 20000 kPa, Bellows volumetry | 1193.3 ± 1.5
311.2 K, 30000 kPa, Bellows volumetry | 1197.1 ± 1.5
311.2 K, 40000 kPa, Bellows volumetry | 1200.8 ± 1.5
311.2 K, 50000 kPa, Bellows volumetry | 1204.4 ± 1.5
311.2 K, 60000 kPa, Bellows volumetry | 1207.8 ± 1.5
311.2 K, 70000 kPa, Bellows volumetry | 1211.3 ± 1.5
311.2 K, 80000 kPa, Bellows volumetry | 1214.6 ± 1.5
311.2 K, 90000 kPa, Bellows volumetry | 1217.9 ± 1.5
311.2 K, 100000 kPa, Bellows volumetry | 1221 ± 1.5
311.2 K, 110000 kPa, Bellows volumetry | 1224.2 ± 1.5
311.2 K, 120000 kPa, Bellows volumetry | 1227.2 ± 1.5
311.2 K, 130000 kPa, Bellows volumetry | 1230.3 ± 1.5
311.2 K, 140000 kPa, Bellows volumetry | 1233.1 ± 1.5
311.2 K, 150000 kPa, Bellows volumetry | 1236.1 ± 1.5
311.2 K, 160000 kPa, Bellows volumetry | 1238.9 ± 1.5
311.2 K, 170000 kPa, Bellows volumetry | 1241.7 ± 1.5
311.2 K, 180000 kPa, Bellows volumetry | 1244.5 ± 1.5
311.2 K, 190000 kPa, Bellows volumetry | 1247.2 ± 1.5
311.2 K, 200000 kPa, Bellows volumetry | 1249.9 ± 1.5
313.15 K, 101.33 kPa, Vibrating tube method | 1185.3 ± 1.1
323.15 K, 101.33 kPa, Vibrating tube method | 1178.8 ± 1.1
330.9 K, 10000 kPa, Bellows volumetry | 1176.8 ± 1.5
330.9 K, 20000 kPa, Bellows volumetry | 1180.9 ± 1.5
330.9 K, 30000 kPa, Bellows volumetry | 1184.9 ± 1.5
330.9 K, 40000 kPa, Bellows volumetry | 1188.8 ± 1.5
330.9 K, 50000 kPa, Bellows volumetry | 1192.5 ± 1.5
330.9 K, 60000 kPa, Bellows volumetry | 1196.1 ± 1.5
330.9 K, 70000 kPa, Bellows volumetry | 1199.8 ± 1.5
330.9 K, 80000 kPa, Bellows volumetry | 1203.3 ± 1.5
330.9 K, 90000 kPa, Bellows volumetry | 1206.6 ± 1.5
330.9 K, 100000 kPa, Bellows volumetry | 1210 ± 1.5
330.9 K, 110000 kPa, Bellows volumetry | 1213.3 ± 1.5
330.9 K, 120000 kPa, Bellows volumetry | 1216.4 ± 1.5
330.9 K, 130000 kPa, Bellows volumetry | 1219.5 ± 1.5
330.9 K, 140000 kPa, Bellows volumetry | 1222.5 ± 1.5
330.9 K, 150000 kPa, Bellows volumetry | 1225.4 ± 1.5
330.9 K, 160000 kPa, Bellows volumetry | 1228.3 ± 1.5
330.9 K, 170000 kPa, Bellows volumetry | 1231.2 ± 1.5
330.9 K, 180000 kPa, Bellows volumetry | 1234 ± 1.5
330.9 K, 190000 kPa, Bellows volumetry | 1236.7 ± 1.5
330.9 K, 200000 kPa, Bellows volumetry | 1239.6 ± 1.5
333.15 K, 101.33 kPa, Vibrating tube method | 1172.5 ± 1.1
343.15 K, 101.33 kPa, Vibrating tube method | 1166.1 ± 1.1
351.3 K, 10000 kPa, Bellows volumetry | 1164.2 ± 1.5
351.3 K, 20000 kPa, Bellows volumetry | 1168.7 ± 1.5
351.3 K, 30000 kPa, Bellows volumetry | 1172.8 ± 1.5
351.3 K, 40000 kPa, Bellows volumetry | 1176.9 ± 1.5
351.3 K, 50000 kPa, Bellows volumetry | 1180.9 ± 1.5
351.3 K, 60000 kPa, Bellows volumetry | 1184.7 ± 1.5
351.3 K, 70000 kPa, Bellows volumetry | 1188.4 ± 1.5
351.3 K, 80000 kPa, Bellows volumetry | 1192 ± 1.5
351.3 K, 90000 kPa, Bellows volumetry | 1195.5 ± 1.5
351.3 K, 100000 kPa, Bellows volumetry | 1198.9 ± 1.5
351.3 K, 110000 kPa, Bellows volumetry | 1202.1 ± 1.5
351.3 K, 120000 kPa, Bellows volumetry | 1205.4 ± 1.5
351.3 K, 130000 kPa, Bellows volumetry | 1208.7 ± 1.5
351.3 K, 140000 kPa, Bellows volumetry | 1211.8 ± 1.5
351.3 K, 150000 kPa, Bellows volumetry | 1214.8 ± 1.5
351.3 K, 160000 kPa, Bellows volumetry | 1217.8 ± 1.5
351.3 K, 170000 kPa, Bellows volumetry | 1220.8 ± 1.5
351.3 K, 180000 kPa, Bellows volumetry | 1223.7 ± 1.5
351.3 K, 190000 kPa, Bellows volumetry | 1226.6 ± 1.5
351.3 K, 200000 kPa, Bellows volumetry | 1229.5 ± 1.5
353.15 K, 101.33 kPa, Vibrating tube method | 1159.9 ± 1.1
363.15 K, 101.33 kPa, Vibrating tube method | 1153.8 ± 1.1
371.3 K, 10000 kPa, Bellows volumetry | 1152.1 ± 1.5
371.3 K, 20000 kPa, Bellows volumetry | 1156.2 ± 1.5
371.3 K, 30000 kPa, Bellows volumetry | 1161 ± 1.5
371.3 K, 40000 kPa, Bellows volumetry | 1165.2 ± 1.5
371.3 K, 50000 kPa, Bellows volumetry | 1169.2 ± 1.5
371.3 K, 60000 kPa, Bellows volumetry | 1173.3 ± 1.5
371.3 K, 70000 kPa, Bellows volumetry | 1177.2 ± 1.5
371.3 K, 80000 kPa, Bellows volumetry | 1180.9 ± 1.5
371.3 K, 90000 kPa, Bellows volumetry | 1184.5 ± 1.5
371.3 K, 100000 kPa, Bellows volumetry | 1188.2 ± 1.5
371.3 K, 110000 kPa, Bellows volumetry | 1191.6 ± 1.5
371.3 K, 120000 kPa, Bellows volumetry | 1195 ± 1.5
371.3 K, 130000 kPa, Bellows volumetry | 1198.3 ± 1.5
371.3 K, 140000 kPa, Bellows volumetry | 1201.6 ± 1.5
371.3 K, 150000 kPa, Bellows volumetry | 1204.7 ± 1.5
371.3 K, 160000 kPa, Bellows volumetry | 1207.9 ± 1.5
371.3 K, 170000 kPa, Bellows volumetry | 1210.9 ± 1.5
371.3 K, 180000 kPa, Bellows volumetry | 1213.9 ± 1.5
371.3 K, 190000 kPa, Bellows volumetry | 1216.8 ± 1.5
371.3 K, 200000 kPa, Bellows volumetry | 1219.8 ± 1.5
373.15 K, 101.33 kPa, Vibrating tube method | 1147.6 ± 1.1
391.2 K, 10000 kPa, Bellows volumetry | 1140.6 ± 1.5
391.2 K, 20000 kPa, Bellows volumetry | 1144.9 ± 1.5
391.2 K, 30000 kPa, Bellows volumetry | 1149.5 ± 1.5
391.2 K, 40000 kPa, Bellows volumetry | 1154 ± 1.5
391.2 K, 50000 kPa, Bellows volumetry | 1158.2 ± 1.5
391.2 K, 60000 kPa, Bellows volumetry | 1162.3 ± 1.5
391.2 K, 70000 kPa, Bellows volumetry | 1166.4 ± 1.5
391.2 K, 80000 kPa, Bellows volumetry | 1170.4 ± 1.5
391.2 K, 90000 kPa, Bellows volumetry | 1174.1 ± 1.5
391.2 K, 100000 kPa, Bellows volumetry | 1177.9 ± 1.5
391.2 K, 110000 kPa, Bellows volumetry | 1181.4 ± 1.5
391.2 K, 120000 kPa, Bellows volumetry | 1184.9 ± 1.5
391.2 K, 130000 kPa, Bellows volumetry | 1188.3 ± 1.5
391.2 K, 140000 kPa, Bellows volumetry | 1191.6 ± 1.5
391.2 K, 150000 kPa, Bellows volumetry | 1194.9 ± 1.5
391.2 K, 160000 kPa, Bellows volumetry | 1198.1 ± 1.5
391.2 K, 170000 kPa, Bellows volumetry | 1201.2 ± 1.5
391.2 K, 180000 kPa, Bellows volumetry | 1204.2 ± 1.5
391.2 K, 190000 kPa, Bellows volumetry | 1207.2 ± 1.5
391.2 K, 200000 kPa, Bellows volumetry | 1210.2 ± 1.5
411.1 K, 10000 kPa, Bellows volumetry | 1128.7 ± 1.5
411.1 K, 20000 kPa, Bellows volumetry | 1133.3 ± 1.5
411.1 K, 30000 kPa, Bellows volumetry | 1138.1 ± 1.5
411.1 K, 40000 kPa, Bellows volumetry | 1142.8 ± 1.5
411.1 K, 50000 kPa, Bellows volumetry | 1147.3 ± 1.5
411.1 K, 60000 kPa, Bellows volumetry | 1151.7 ± 1.5
411.1 K, 70000 kPa, Bellows volumetry | 1155.8 ± 1.5
411.1 K, 80000 kPa, Bellows volumetry | 1159.9 ± 1.5
411.1 K, 90000 kPa, Bellows volumetry | 1163.9 ± 1.5
411.1 K, 100000 kPa, Bellows volumetry | 1167.6 ± 1.5
411.1 K, 110000 kPa, Bellows volumetry | 1171.3 ± 1.5
411.1 K, 120000 kPa, Bellows volumetry | 1174.9 ± 1.5
411.1 K, 130000 kPa, Bellows volumetry | 1178.4 ± 1.5
411.1 K, 140000 kPa, Bellows volumetry | 1181.8 ± 1.5
411.1 K, 150000 kPa, Bellows volumetry | 1185.3 ± 1.5
411.1 K, 160000 kPa, Bellows volumetry | 1188.5 ± 1.5
411.1 K, 170000 kPa, Bellows volumetry | 1191.7 ± 1.5
411.1 K, 180000 kPa, Bellows volumetry | 1194.8 ± 1.5
411.1 K, 190000 kPa, Bellows volumetry | 1197.9 ± 1.5
411.1 K, 200000 kPa, Bellows volumetry | 1201 ± 1.5
